Source: patent publication US20140134253A1, “DRY POWDER FOSFOMYCIN/TOBRAMYCIN FORMULATION FOR INHALATION” (Gilead Sciences, Inc., priority 2011, published 2014)

Experiments:
[1] = tested on: E. coli, Proteus spp., Salmonella spp., Shigella spp., and S. marcescens; settings: cited from earlier work
[2] = pH of the active ingredients in solution; assay type: physicochemical
From the text: Although simple amino acids and peptides have been used as excipients in pulmonary delivery, they exist as zwitterions with the free amine being protonated by the carboxylic acid. Since fosfomycin disodium and tobramycin base are basic with pHs of approximately 9.7, and 11 in solution, respectively, a formulation combining fosfomycin disodium and tobramycin base would be expected to be outside of the pH range to be tolerable for administration by inhalation to the pulmonary system. However, with the addition of NAL, the pH range in the lung upon administration of the dry powder formulation of the present invention is between about 7 to about 8, and preferably, from about 7.1 to about 7.7. Without the addition of NAL, a dry powder formulation combining fosfomycin disodium and tobramycin in the same molar ratios would be expected to produce a pH in the lung of about 8.2 (when the pH of tobramycin is adjusted with 2.5 molar equivalent of sulfuric acid) and a pH of about 9.1 (without pH adjustment with sulfuric acid).

[3] = cited from earlier work
[4] = aerosol administration; cited from earlier work

SMILES | fosfomycin concentration at which organisms are generally inhibited [1] [µg/mL] | pH in solution [2] | oral absorption ([3]; in vivo, po) | plasma half-life ([3]; parenteral administration, excreted by glomerular filtration) [h] | sputum levels [4] [µg/mL]
C[C@@H]1O[C@@H]1P(=O)(O)O [Fosfomycin] | ≤ 64 |  |  |  | 
C[C@@H]1O[C@@H]1P(=O)(O)O [fosfomycin disodium] |  | approximately 9.7 |  |  | 
NC[C@H]1O[C@H](O[C@H]2[C@H](O)[C@@H](O[C@H]3O[C@H](CO)[C@@H](O)[C@H](N)[C@H]3O)[C@H](N)C[C@@H]2N)[C@H](N)C[C@@H]1O [tobramycin, Tobramycin] |  | ~11 | poorly absorbed orally | 1 to 2 | ≥ 1000
